# The source made the active and inactive calls. The rule behind the calls is not given here.
# How the values were obtained:
# [1] = system: Staphylococcus aureus; assay: Antimicrobial activity against Staphylococcus aureus by agar diffusion method; type: functional, organism-based
# [2] = system: Escherichia coli; assay: Antimicrobial activity against Escherichia coli by agar diffusion method; type: functional, organism-based
# [3] = system: SMMC-7721; assay: Cytotoxicity against human SMMC7721 cells by colorimetric assay; type: functional, cell-based
# [4] = system: Aspergillus niger; assay: Antimicrobial activity against Aspergillus niger by agar diffusion method; type: functional, organism-based
# [5] = system: NCI-H460; assay: Cytotoxicity against human NCI-H460 cells by colorimetric assay; type: functional, cell-based
# [6] = system: SW1990; assay: Cytotoxicity against human SW1990 cells by colorimetric assay; type: functional, cell-based
SMILES,Activity [1],Activity [2],IC50 [3],Activity [4],IC50 [5],IC50 [6]
C=C(CC[C@@H](C)[C@H]1CC[C@H]2C3=C([C@H](O)C[C@]12C)[C@@]1(C)CC[C@H](O)C[C@@H]1CC3=O)C(C)C,inactive,inactive,28 µg/mL,inactive,,
C=C(CC[C@@H](C)[C@H]1CC[C@H]2C3=C(CC[C@]12C)[C@@]1(C)CC[C@H](O)C[C@@H]1CC3=O)C(C)C,inactive,inactive,,inactive,,
C=C(CC[C@@H](C)[C@H]1CC[C@H]2C3=C(CC[C@]12C)[C@@]1(C)CC[C@H](O)C[C@@H]1C(=O)O3)C(C)C,inactive,inactive,7 µg/mL,inactive,5 µg/mL,28 µg/mL
